Assay results reported in ChEMBL document CHEMBL4321809, “Structure-Reactivity Relationships on Substrates and Inhibitors of the Lysine Deacylase Sirtuin 2 from Schistosoma mansoni (SmSirt2)” (J Med Chem, 2019).
The source made the active and inactive calls. No cut-off for these calls is given here.

Legend:
[1] = biological target: T1, NAD-dependent protein deacetylase (Schistosoma mansoni, UniProt T1VXA1); experiment: Inhibition of recombinant Schistosoma mansoni sirtuin 2 (21 to 322 residues) expressed in Escherichia coli BL21(DE3) cells using ZMAL as substrate after 1 hr in presence of NAD+ by homogeneous fluorescence based analysis
T1 sequence (T1VXA1 whole entry): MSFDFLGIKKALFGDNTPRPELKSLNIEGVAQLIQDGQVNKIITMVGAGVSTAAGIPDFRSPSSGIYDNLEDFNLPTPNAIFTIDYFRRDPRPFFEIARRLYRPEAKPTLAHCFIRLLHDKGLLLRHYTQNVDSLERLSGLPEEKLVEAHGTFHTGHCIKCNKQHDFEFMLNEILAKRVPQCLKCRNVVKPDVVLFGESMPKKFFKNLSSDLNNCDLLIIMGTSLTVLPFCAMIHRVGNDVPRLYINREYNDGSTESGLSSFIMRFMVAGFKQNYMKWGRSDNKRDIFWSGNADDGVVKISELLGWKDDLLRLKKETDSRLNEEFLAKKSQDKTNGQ

[2] = biological target: T2, NAD-dependent protein deacetylase sirtuin-2 (Homo sapiens, UniProt Q8IXJ6); experiment: Inhibition of N-terminal His6 tagged human sirtuin 2 (25 to 389 residues) at 25 uM using Cbz-Lys(acetyl)-AMC as substrate after 4 hrs in presence of NAD+ by homogeneous fluorescence based analysis relative to control
T2 sequence (Q8IXJ6 whole entry): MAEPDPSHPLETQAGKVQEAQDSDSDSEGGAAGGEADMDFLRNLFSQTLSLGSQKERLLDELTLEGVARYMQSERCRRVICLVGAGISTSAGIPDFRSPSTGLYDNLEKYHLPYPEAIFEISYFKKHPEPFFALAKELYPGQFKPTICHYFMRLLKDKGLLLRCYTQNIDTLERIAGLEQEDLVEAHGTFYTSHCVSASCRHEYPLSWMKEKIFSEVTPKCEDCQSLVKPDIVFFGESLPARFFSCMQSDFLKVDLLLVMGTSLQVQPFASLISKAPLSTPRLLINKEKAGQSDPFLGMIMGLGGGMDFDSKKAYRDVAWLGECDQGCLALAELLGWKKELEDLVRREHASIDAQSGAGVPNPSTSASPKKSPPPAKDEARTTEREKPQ

[3] = biological target: T3, NAD-dependent protein deacetylase (Schistosoma mansoni) (UniProt T1VXA1); experiment: (§1) Inhibition of recombinant Schistosoma mansoni sirtuin 2 (21 to 322 residues) expressed in Escherichia coli BL21(DE3) cells at 25 uM using ZMAL as susbtrate after 1 hr in presence of NAD+ by homogeneous fluorescence based analysis relative to control
T3 sequence (whole entry): T1 sequence (T1VXA1 whole entry)

[4] = biological target: T4, NAD-dependent protein deacetylase sirtuin-1 (Homo sapiens, UniProt Q96EB6); experiment: Inhibition of human sirtuin 1 at 25 uM relative to control
T4 sequence (Q96EB6 whole entry): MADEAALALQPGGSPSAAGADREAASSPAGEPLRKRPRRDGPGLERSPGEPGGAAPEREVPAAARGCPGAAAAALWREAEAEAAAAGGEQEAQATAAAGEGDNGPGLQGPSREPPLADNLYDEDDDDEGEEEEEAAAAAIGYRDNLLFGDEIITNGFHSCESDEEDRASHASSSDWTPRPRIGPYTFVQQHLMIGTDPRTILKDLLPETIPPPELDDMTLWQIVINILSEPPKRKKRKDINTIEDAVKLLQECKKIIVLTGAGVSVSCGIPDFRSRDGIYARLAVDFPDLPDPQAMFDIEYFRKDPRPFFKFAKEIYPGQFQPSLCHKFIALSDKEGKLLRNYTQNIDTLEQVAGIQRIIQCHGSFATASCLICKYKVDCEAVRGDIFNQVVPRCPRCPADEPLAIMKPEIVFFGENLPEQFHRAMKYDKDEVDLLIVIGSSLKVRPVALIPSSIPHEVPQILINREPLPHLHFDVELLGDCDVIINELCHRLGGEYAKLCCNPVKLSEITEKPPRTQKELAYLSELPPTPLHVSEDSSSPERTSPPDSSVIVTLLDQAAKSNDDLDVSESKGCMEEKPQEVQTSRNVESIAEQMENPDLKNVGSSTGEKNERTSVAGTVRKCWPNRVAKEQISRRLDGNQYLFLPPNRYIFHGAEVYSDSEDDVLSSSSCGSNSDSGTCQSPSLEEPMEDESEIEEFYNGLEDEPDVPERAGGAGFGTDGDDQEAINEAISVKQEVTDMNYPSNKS

[5] = biological target: T5, NAD-dependent protein deacetylase sirtuin-3, mitochondrial (Homo sapiens, UniProt Q9NTG7); experiment: Inhibition of human sirtuin 3 at 25 uM relative to control
T5 sequence (Q9NTG7 whole entry): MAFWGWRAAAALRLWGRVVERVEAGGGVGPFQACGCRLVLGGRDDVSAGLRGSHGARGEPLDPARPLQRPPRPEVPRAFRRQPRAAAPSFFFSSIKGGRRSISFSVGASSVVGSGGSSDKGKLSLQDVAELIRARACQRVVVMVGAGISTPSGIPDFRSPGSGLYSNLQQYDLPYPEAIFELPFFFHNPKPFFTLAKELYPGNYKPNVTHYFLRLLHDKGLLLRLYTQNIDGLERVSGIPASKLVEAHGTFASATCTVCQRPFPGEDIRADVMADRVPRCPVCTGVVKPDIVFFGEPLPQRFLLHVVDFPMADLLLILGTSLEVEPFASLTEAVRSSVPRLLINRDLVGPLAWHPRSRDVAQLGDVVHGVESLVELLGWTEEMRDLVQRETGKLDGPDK

Schistosoma mansoni [6] = experiment: Antiparasitic activity against Schistosoma mansoni Puerto Rico assessed as reduction in parasite viability at 10 to 20 uM after 72 hrs by microscopic analysis; type: functional, organism-based
Schistosoma mansoni [7] = experiment: Antiparasitic activity against adult Schistosoma mansoni Puerto Rico assessed as reduction in worm pairing at 10 to 20 uM after 24 hrs by microscopic analysis; type: functional, organism-based
Schistosoma mansoni [8] = experiment: Antiparasitic activity against adult Schistosoma mansoni Puerto Rico assessed as reduction in egg laying at 10 to 20 uM after 24 hrs by microscopic analysis; type: functional, organism-based
HL-60 = experiment: Cytotoxicity against human HL60 cells at 10 uM after 72 hrs by Cell titer MTS dye based analysis; conditions: hl-60, 72 h
[9] = biological target: T3, NAD-dependent protein deacetylase (Schistosoma mansoni); experiment: as §1, with “cells assessed as inhibition of substrate demyristoylation” for “cells”, “20” for “25”, “(Z)-(Myr)-Lys-AMC” for “ZMAL”
[10] = biological target: T2, NAD-dependent protein deacetylase sirtuin-2; experiment: Inhibition of N-terminal His6 tagged human sirtuin 2 (25 to 389 residues) assessed as inhibition of substrate demyristoylation using (Z)-(Myr)-Lys-AMC as susbtrate after 4 hrs in presence of NAD+ by homogeneous fluorescence based analysis
[11] = biological target: T2, NAD-dependent protein deacetylase sirtuin-2; experiment: Inhibition of N-terminal His6 tagged human sirtuin 2 (25 to 389 residues) using Cbz-Lys(acetyl)-AMC as substrate after 4 hrs in presence of NAD+ by homogeneous fluorescence based analysis

Compound	IC50 [1]	inhibition at 25 µM [2]	inhibition [3]	further results
COc1ccc(Nc2ccc(C(C)N(C)c3ncc4c(N)nc(N)nc4n3)cc2)cc1 (configuration not stated)	65.1 µM	40.8%		
COc1ccc(Oc2ccc(C(C)N(C)c3ncc4c(N)nc(N)nc4n3)cc2)cc1OC (configuration not stated)	44.7 µM	35.3%		
Nc1nc(N)c2cnc(NC3CCN(Cc4ccccc4)CC3)nc2n1		23.2%	< 15%	
CC(Nc1ncc2c(N)nc(N)nc2n1)c1ccccc1 (configuration not stated)		< 15%	< 15%	
CCCCCCCC(=O)Nc1ccc(-c2noc(CC3CCCN(Cc4cccc(F)c4C)C3)n2)cc1 (configuration not stated)		< 15%	30.5%	
CC(c1ccc(Oc2ccc(OCc3ccccc3)cc2)cc1)N(C)c1ncc2c(N)nc(N)nc2n1 (configuration not stated)		70.4%	40.3%	
COc1ccc(Oc2ccc(C(C)Nc3ncc4c(N)nc(N)nc4n3)cc2)cc1 (configuration not stated)		21%	37.5%	
Nc1ncc2c(N)nc(N)nc2n1		< 15%	< 15%	
CCCCCCCCCC(=O)Nc1ccc(-c2noc(CC3CCCN(Cc4cccc(F)c4C)C3)n2)cc1 (configuration not stated)		< 15%	< 15%	
CNC(C)c1ccc(Oc2ccccc2)cc1 (configuration not stated)		< 15%	< 15%	
COc1ccc(COc2ccc(C(C)N(C)c3ncc4c(N)nc(N)nc4n3)cc2)cc1 (configuration not stated)		61.7%	46.2%	inhibition at 25 µM [4]: < 15%; inhibition at 25 µM [5]: < 15%; inhibition (Schistosoma mansoni [6]): Active; inhibition (Schistosoma mansoni [7]): Active; inhibition (Schistosoma mansoni [8]): Active; Activity (HL-60): Toxic
CC(c1ccccc1)N(C)c1ncc2c(N)nc(N)nc2n1 (configuration not stated)		< 15%	< 15%	
COc1cc(OC)cc(Oc2ccc(C(C)N(C)c3ncc4c(N)nc(N)nc4n3)cc2)c1 (configuration not stated)	12.5 µM	7.4%		inhibition (Schistosoma mansoni [6]): Active; inhibition (Schistosoma mansoni [7]): Active; inhibition (Schistosoma mansoni [8]): Active; Activity (HL-60): Non-Toxic
COc1ccc(Oc2ccc(CN(C)c3ncc4c(N)nc(N)nc4n3)cc2)cc1		< 15%	< 15%	inhibition at 25 µM [4]: < 15%; inhibition at 25 µM [5]: < 15%; inhibition (Schistosoma mansoni [6]): Active; inhibition (Schistosoma mansoni [7]): Active; inhibition (Schistosoma mansoni [8]): Active; Activity (HL-60): Toxic
COc1ccc(Oc2ccc(C(C)N(C)c3ncc4c(N)nc(N)nc4n3)cc2)c2ccccc12 (configuration not stated)		30.6%	18.4%	
CN(Cc1ccccc1)c1ncc2c(N)nc(N)nc2n1		< 15%	< 15%	
COc1cc(OC)cc(Sc2ccc(C(C)N(C)c3ncc4c(N)nc(N)nc4n3)cc2)c1 (configuration not stated)	4.3 µM	27.9%		inhibition [9]: 15%; IC50 [10]: 25.1 µM; inhibition at 25 µM [4]: < 15%; inhibition at 25 µM [5]: < 15%; inhibition (Schistosoma mansoni [6]): Active; inhibition (Schistosoma mansoni [7]): Active; inhibition (Schistosoma mansoni [8]): Active; Activity (HL-60): Non-Toxic
COc1ccc(C(C)N(C)c2ncc3c(N)nc(N)nc3n2)cc1 (configuration not stated)		< 15%	< 15%	

Compound	IC50 [1]	inhibition at 25 µM [2]	inhibition [3]	further results
Nc1nc(N)c2cnc(N3CCN(c4ccccc4)CC3)nc2n1		< 15%	< 15%	
CC(c1ccc(-c2ccccc2)cc1)N(C)c1ncc2c(N)nc(N)nc2n1 (configuration not stated)		< 15%	24.8%	
CC(c1ccc(Oc2ccc(OC(F)(F)F)cc2)cc1)N(C)c1ncc2c(N)nc(N)nc2n1 (configuration not stated)		37.5%	20.3%	
CC(=O)Nc1ccc(-c2noc(CC3CCCN(Cc4cccc(F)c4C)C3)n2)cc1 (configuration not stated)	14 to 14.5 µM			IC50 [11]: 3.6 to 8 µM
CCC(c1ccc(Oc2ccc(OC)cc2)cc1)N(C)c1ncc2c(N)nc(N)nc2n1 (configuration not stated)	12.8 µM			IC50 [11]: 36.7 µM
CC(c1ccc(Oc2ccccc2)cc1)N(C)c1ncc2c(N)nc(N)nc2n1 (configuration not stated)		< 15%	27.6%	
CC1CCCCN1c1ncc2c(N)nc(N)nc2n1 (configuration not stated)		< 15%	< 15%	
COc1ccc(Sc2ccc(C(C)N(C)c3ncc4c(N)nc(N)nc4n3)cc2)cc1 (configuration not stated)	14.9 µM			IC50 [11]: 13.3 µM
COc1cc(Oc2ccc(C(C)N(C)c3ncc4c(N)nc(N)nc4n3)cc2)cc(OC)c1OC (configuration not stated)	30.8 µM	29.2%		
Nc1nc(N)c2cnc(N3CCc4ccccc4C3)nc2n1		< 15%	< 15%	
COc1ccc(CNc2ncc3c(N)nc(N)nc3n2)cc1		< 15%	< 15%	
COc1cccc(Oc2ccc(C(C)N(C)c3ncc4c(N)nc(N)nc4n3)cc2)c1 (configuration not stated)	23.1 µM	33.8%		
COC1=C(OC)C(=O)C(CCCCCCCCCCO)=C(C)C1=O [IDEBENONE]	1.9 µM			IC50 [11]: 15.4 µM
COc1ccc(Oc2ccc(CN(C)c3ncc(C#N)c(N)n3)cc2)cc1		< 15%	< 15%	
COc1ccc(Oc2ccc(C(C(C)C)N(C)c3ncc4c(N)nc(N)nc4n3)cc2)cc1 (configuration not stated)	27.7 µM	57.4%		
COc1cc(OC)cc(Oc2ccc(C(c3ccccc3)N(C)c3ncc4c(N)nc(N)nc4n3)cc2)c1 (configuration not stated)	3.3 µM	29.6%		inhibition [9]: < 15%; IC50 [10]: 13.1 µM; inhibition at 25 µM [4]: < 15%; inhibition at 25 µM [5]: < 15%; inhibition (Schistosoma mansoni [6]): Active; inhibition (Schistosoma mansoni [7]): Active; inhibition (Schistosoma mansoni [8]): Active; Activity (HL-60): Non-Toxic
COc1ccc(Oc2ccc(C(c3ccccc3)N(C)c3ncc4c(N)nc(N)nc4n3)cc2)cc1 (configuration not stated)	2.34 µM	22.1%		Imax [3]: 60%; inhibition (Schistosoma mansoni [6]): Active; inhibition (Schistosoma mansoni [7]): Active; inhibition (Schistosoma mansoni [8]): Active; Activity (HL-60): Non-Toxic
